Measurements reported in EP2757103B1, “PYRROLIDINE-3-YLACETIC ACID DERIVATIVE” (Eisai R&D Management Co., Ltd., priority 2011, dated 2013).

What follows are molecules tested against T1, CX3CR1 (Homo sapiens, UniProt P49238) (assay: Inhibition of cell migration in fractalkine-induced chemotaxis assay). Details: fractalkine-induced (0.3 nM) migration of CX3CR1-expressing B300 cells; preincubated with test compound for 30 minutes; Transwell, 3.5 hours at 37°C.
T1 construct: expressed in transfected cells; host or cells: B300 cells
T1 sequence (P49238 1-355): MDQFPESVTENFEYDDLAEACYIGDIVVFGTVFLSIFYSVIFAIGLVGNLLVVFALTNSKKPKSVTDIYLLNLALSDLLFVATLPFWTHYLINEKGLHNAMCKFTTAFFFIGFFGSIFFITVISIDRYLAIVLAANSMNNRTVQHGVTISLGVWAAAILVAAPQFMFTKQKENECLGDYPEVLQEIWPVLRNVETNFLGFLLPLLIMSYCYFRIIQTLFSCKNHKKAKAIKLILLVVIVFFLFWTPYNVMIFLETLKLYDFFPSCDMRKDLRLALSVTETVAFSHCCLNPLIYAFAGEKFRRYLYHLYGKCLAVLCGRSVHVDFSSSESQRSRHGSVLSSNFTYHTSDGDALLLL
Type: cell-based
Procedure: The inhibitory effects of the example compounds on fractalkine-induced cell migration were examined using CX3CR1-transfected B300 cells
After equilibrating the Transwell plate (24-well clusters, pore size: 5 µm, manufactured by Corning Incorporated), a fractalkine solution (0.3 nM, manufactured by R&D Systems, Inc.) was added to the lower wells. CX3CR1-expressing B300 cells which were preincubated with the test compound (0.001, 0.003, 0.01 or 0.03 µM) for 30 minutes were placed in the upper layer wells, followed by incubation under the condition of 5% CO2 for 3.5 hours at 37°C. The number of cells migrated to the lower wells was evaluated using CellTiter (manufactured by Promega Corporation).
The inhibitory rate of the test compound on fractalkine-induced cell migration was calculated by the following formula, where [A] is the number of migrated cells in the presence of both fractalkine and the test compound, [B] is the number of migrated cells in the presence of fractalkine and in the absence of the test compound, and [C] is the number of migrated cells in the absence of both fractalkine and the test compound; the 50% inhibitory concentration (IC50) was calculated based on the inhibitory rate. Inhibitory rate (%) = [1-{(A-C)/(B-C)}] × 100
Work on `CCCCCCN1CCC(NC(=O)[C@]2(CC(=O)O)CN(Cc3c(Cl)cccc3C(F)F)C[C@@H]2C)CC1` [Example 10, 2-[(3S,4R)-1-{[2-Chloro-6-(difluoromethyl)phenyl]methyl}-3-[(1-hexylpiperidin-4-yl)carbamoyl]-4-methylpyrrolidin-3-yl]acetic acid] yielded an IC50 of 14 nM. `C[C@H]1CN(Cc2c(Cl)cccc2C(F)F)C[C@@]1(CC(=O)O)C(=O)NC1CCN(CC2CCCCC2)CC1` [Example 14, 2-[(3S,4R)-1-{[2-Chloro-6-(difluoromethyl)phenyl]methyl}-3-{[1-(cyclohexylmethyl)piperidin-4-yl]carbamoyl}-4-methylpyrrolidin-3-yl]acetic acid] was tested, and the IC50 was 12 nM. In the case of `C[C@H]1CN(Cc2c(Cl)cccc2Cl)C[C@@]1(CC(=O)O)C(=O)N[C@H]1CCN(CC2=CCCCC2)C1` [Example 9, 2-[(3S,4R)-3-{[(3S)-1-(Cyclohex-1-en-1-ylmethyl)pyrrolidin-3-yl]carbamoyl}-1-[(2,6-dichlorophenyl)methyl]-4-methylpyrrolidin-3-yl]acetic acid], the IC50 is reported as 16 nM. `C[C@H]1CN(Cc2c(Cl)cccc2C(F)(F)F)C[C@@]1(CC(=O)O)C(=O)NC1CCN(CC2=CCCC2)CC1` [Example 7, 2-[(3S,4R)-1-{[2-Chloro-6-(trifluoromethyl)phenyl]methyl}-3-{[1-(cyclopent-1-en-1-ylmethyl)piperidin-4-yl]carbamoyl}-4-methylpyrrolidin-3-yl]acetic acid] gave an IC50 of 5 nM. Molecule `Cc1cccc(Cl)c1CN1C[C@H](C)[C@](CC(=O)O)(C(=O)NC2CCN(CC3=CCCCC3)CC2)C1` [Example 6, 2-[(3S,4R)-1-[(2-Chloro-6-methylphenyl)methyl]-3-{[1-(cyclohex-1-en-1-ylmethyl)piperidin-4-yl]carbamoyl}-4-methylpyrrolidin-3-yl]acetic acid] has an IC50 of 11 nM. Work on `C[C@H]1CN(Cc2c(Cl)cccc2C(F)(F)F)C[C@@]1(CC(=O)O)C(=O)NC1CCN(CC2=CCCCC2)CC1` [Example 3, 2-[(3S,4R)-1-{[2-Chloro-6-(trifluoromethyl)phenyl]methyl}-3-{[1-(cyclohex-1-en-1-ylmethyl)piperidin-4-yl]carbamoyl}-4-methylpyrrolidin-3-yl]acetic acid] yielded an IC50 of 4 nM. `C[C@H]1CN(Cc2c(Cl)cccc2C(F)F)C[C@@]1(CC(=O)O)C(=O)NC1CCN(CC2=CCCC2)CC1` [Example 13, 2-[(3S,4R)-1-{[2-Chloro-6-(difluoromethyl)phenyl]methyl}-3-{[1-(cyclopent-1-en-1-ylmethyl)piperidin-4-yl]carbamoyl}-4-methylpyrrolidin-3-yl]acetic acid] gave an IC50 of 16 nM. `C[C@H]1CN(Cc2c(Cl)cccc2Cl)C[C@@]1(CC(=O)O)C(=O)NC1CCN(CC2CCC(F)(F)CC2)CC1` [Example 2, 2-[(3S,4R)-1-[(2,6-Dichlorophenyl)methyl]-3-({1-[(4,4-difluorocyclohexyl)methyl]piperidin-4-yl}carbamoyl)-4-methylpyrrolidin-3-yl]acetic acid] gave an IC50 of 21 nM. `C[C@H]1CN(Cc2c(Cl)cccc2C(F)F)C[C@@]1(CC(=O)O)C(=O)NC1CCN(CC2=CCCCC2)CC1` [Example 12, 2-[(3S,4R)-1-{[2-Chloro-6-(difluoromethyl)phenyl]methyl}-3-{[1-(cyclohex-1-en-1-ylmethyl)piperidin-4-yl]carbamoyl}-4-methylpyrrolidin-3-yl]acetic acid] was tested, and the IC50 was 6 nM. `CCCC(F)CN1CCC(NC(=O)[C@]2(CC(=O)O)CN(Cc3c(Cl)cccc3C(F)(F)F)C[C@@H]2C)CC1` (stereo partly drawn) [Example 1, 2-[(3S,4R)-1-{[2-chloro-6-(trifluoromethyl)phenyl]methyl}-3-{[1-(2-fluoropentyl)piperidin-4-yl]carbamoyl}-4-methylpyrrolidin-3-yl]acetic acid] showed an IC50 of 13 nM.
